According to patent US20180161433A1, “SIZE TUNABLE MICROBIAL MIMETICS FOR IMMUNOTHERAPY OF THYROID CARCINOMAS AND SOLID TUMORS” (priority 2017, published 2018):
Entries after “also recorded” stand apart in the source; their conditions may differ. Strand notation (5' to 3'): a small letter for the sugar, then the base; units joined by * are phosphorothioate-linked, units joined directly phosphodiester-linked; [ ] holds rarer units or linkages, { } end groups; capitals alone tell only the bases. r = 2'-OH (RNA)

Key:
[1] = tested on: Human peripheral blood mononuclear cells (PBMCs); assay: Induced cytokine secretion by PBMCs (ELISA); format: cell-based; details: for cytokine secretion, component on its own: individual component, 24 hours; for cytokine secretion when complexed to the CAL2 peptide: complexed to CAL2, versus the component on its own
Description: (§1) FIG. 10 is bar graph showing the induced secretion of IL-6 by PBMCs exposed to PolyIC, RNA248, DNA4, DNA10, PolyIC complexed with SEQ. ID NO. 36 (CAL2), RNA248 complexed with SEQ. ID NO. 36, DNA4 complexed with SEQ. ID NO. 36, DNA10 complexed with SEQ. ID NO. 36, DNA4 and RNA248 complexed with SEQ. ID NO. 36, Pam2CSK4-conjugated SEQ. ID NO. 36 complexed with DNA4 and SEQ. ID NO. 36 alone. Each well contained ˜300,000 fresh PBMCs in a total volume of 100 μL of RPMI medium. Solutions of SEQ. ID NO. 36, PolyIC, DNA4, DNA10, Pam2CSK4-conjugated SEQ. ID NO. 36 were all pre-mixed to concentrations of 50 ug/mL (for each peptide reagent) and then added to wells in volumes of 100 uL, such that each well contained a 200 uL volume of PBMCs and reagents. Wells were run in triplicate and the mean value is indicated.
as §1, with “FIG. 11” for “FIG. 10”, “of IL-10” for “of IL-6”
FIG. 12 is a bar graph showing the induced secretion of IL-12 by PBMCs exposed to PolyIC, RNA248, DNA4, DNA10, PolyIC complexed with SEQ. ID NO. 36 (CAL2), RNA248 complexed with SEQ. ID NO. 36, DNA4 complexed with SEQ. ID NO. 36, DNA10 complexed with SEQ. ID NO. 36, DNA4 and RNA248 complexed with SEQ. ID NO. 36, Pam2CSK4-conjugated SEQ. ID NO. 36 complexed with DNA4 and SEQ. ID NO. 36 alone. Each well contained ˜300,000 fresh PBMCs in a total volume of 100 μL of RPMI medium. Solutions of SEQ. ID NO. 36, PolyIC, DNA4, DNA10, Pam2CSK4-conjugated SEQ. ID NO. 36 were all pre-mixed to concentrations of 50 ug/mL (for each peptide reagent) and then added to wells in volumes of 100 uL, such that each well contained a 200 uL volume of PBMCs and reagents. Wells were run in triplicate and the mean value is indicated.
FIG. 13 is a bar graph showing the induced secretion of IL-15 by PBMCs exposed to PolyIC, RNA248, DNA4, DNA10, PolyIC complexed with SEQ. ID NO. 36 (CAL2), RNA248 complexed with SEQ. ID NO. 36, DNA4 complexed with SEQ. ID NO. 36, DNA10 complexed with SEQ. ID NO. 36, DNA4 and RNA248 complexed with SEQ. ID NO. 36, Pam2CSK4-conjugated SEQ. ID NO. 36 complexed with DNA4 and SEQ. ID NO. 36 alone. Each well contained ˜300,000 fresh PBMCs in a total volume of 100 μL of RPMI medium. Solutions of SEQ. ID NO. 36, PolyIC, DNA4, DNA10, Pam2CSK4-conjugated SEQ. ID NO. 36 were all pre-mixed to concentrations of 50 ug/mL (for each peptide reagent) and then added to wells in volumes of 100 uL, such that each well contained a 200 uL volume of PBMCs and reagents. Wells were run in triplicate and the mean value is indicated.
as §1, with “FIG. 14” for “FIG. 10”, “is a” for “is”, “of IFN-α” for “of IL-6”, “reagents. […]” for “reagents. Wells were run in triplicate and the mean value is indicated.”

[2] = tested on: DNA4/RNA248; assay: MM complex stability by gel electrophoresis; format: physicochemical; details: for complex formation with DNA4/RNA248: disappearance of free DNA4/RNA248 at sufficient peptide concentrations
Description: FIG. 9 is an image generated from a gel electrophoresis experiment (20 V/cm), whereby SEQ. ID NO. 36 (1 mg/mL) was mixed with DNA4/RNA248 (1 mg/mL) at ratios of 1:4 (Lane #2), 1:2 (Lane #3), 1:1 (Lane #4), 2:1 (Lane #5), and 4:1 (Lane #6) SEQ. ID NO. 36 to DNA4/RNA248. For reference, only DNA4/RNA248 was placed in Lane #1. The DNA4/RNA248 mixture travels in the gel away from the negative electrode (top) due its inherent negative charge.
Given the importance of forming stable complexes of antigenic cargo with immune-stimulatory molecules, the stability of MM was characterized using gel electrophoresis. MM were formed by mixing CAL2 (SEQ. ID NO. 36) with […] at varying ratios. […] The experiment was repeated for several other peptides, including SEQ. ID NOS. 34 and 42. […] Furthermore, the intensity of each band decreased as concentration of peptide increased. The presence of the linker sequence, RRHRKRR (SEQ. ID NO. 64), was determined to be critical for stable complexation. Separately, solutions of MM were tested after sitting at room temperature for 2 weeks yielding nearly identical results.

[3] = tested on: metastatic iodine-refractory differentiated thyroid cancer (DTC); details: cited from earlier work
[4] = tested on: activated circulating CTLs; details: PD-1+ and LAG-3+ gated flow cytometry; cited from earlier work
[5] = 25 μg/mL, 24 hours, 300,000 PBMCs per well

Molecule: RRHRKRRLSTCMLGTYTQDFNKFHTFPQTAI (targeting calcitonin) [SEQ. ID NO. 36]
- cytokine secretion, component on its own ([1]; 25 μg/mL): very minimal
- nucleotide bands in gel ([2]; SEQ. ID NO. 36 to DNA4/RNA248 2:1 (Lane #5) and 4:1 (Lane #6), 20 V/cm, FIG. 9): no nucleotide bands are seen
- free DNA4/RNA248 in gel ([2]; peptide to DNA4/RNA248 ratios exceeding 2:1, electric field of 20 V/cm): no free DNA4/RNA248 could be visualized

Molecule: 5′-guuggugguugugugagcgu-3′ (rG*rU*rU*rG*rG*rU*rG*rG*rU*rU*rG*rU*rG*rU*rG*rA*rG*rC*rG*rU) [RNA248]
- cytokine secretion when complexed to the CAL2 peptide [1]: marked increase
- cytokine secretion, component on its own ([1]; 25 μg/mL): minimal; also recorded: very minimal

Molecule: 5′-TCGTCGGTTTCGGCGCGCGCCG-3′ (DNA, all phosphorothioate, methylation of C not given here; further chemistry not fully specified) [DNA4]
- induced secretion of IL-12 [1, 5]: does not induce secretion
- induced secretion of IL-15 [1, 5]: does not induce secretion
- cytokine secretion when complexed to the CAL2 peptide [1]: marked increase
- cytokine secretion, component on its own ([1]; 25 μg/mL): minimal

Molecule: 42 (RIPVKWTAIESLFDHRRHRKRR; targeting RETM918T) [compound 42]
- complex formation with DNA4/RNA248 [2]: stable complexes were formed

Molecule: CNC(=O)c1cc(Oc2ccc(NC(=O)Nc3ccc(Cl)c(C(F)(F)F)c3)cc2)ccn1 [sorafenib]
- overall survival benefits [3]: marginal
- progression free survival [3]: improved

Molecule: 34 (RRHRKRRLSTCMLGTYTQDFNKFHTFPQTAIRRHRKRR; targeting calcitonin) [compound 34]
- complex formation with DNA4/RNA248 [2]: stable complexes were formed

Molecule: COc1cc2nccc(Oc3ccc(NC(=O)NC4CC4)c(Cl)c3)c2cc1C(N)=O [lenvatinib]
- overall survival benefits [3]: marginal
- progression free survival [3]: improved

Molecule: 5′-TTCGGCGCGCGCGCGCGCGCGCCGTT-3′ (DNA, all phosphorothioate, methylation of C not given here; further chemistry not fully specified) [DNA10]
- cytokine secretion when complexed to the CAL2 peptide [1]: marked increase
- cytokine secretion, component on its own ([1]; 25 μg/mL): minimal

B1: PEGylated IL-10: PEGylated IL-10 given to patients (protein, UniProt P22301 19-178, looked up)
Interleukin-10: SPGQGTQSENSCTHFPGNLPNMLRDLRDAFSRVKTFFQMKDQLDNLLLKESLLEDFKGYLGCQALSEMIQFYLEEVMPQAENQDPDIKAHVNSLGENLKTLRLRLRRCHRFLPCENKSKAVEQVKNAFNKLQEKGIYKAMSEFDIFINYIEAYMTMKIRN
modifications: PEGylated
- numbers of activated circulating CTLs [4]: increased
